Consider 33 compounds from patent US7244738B2, “Arylamine-substituted quinazolinone compounds useful as alpha 1A/B adrenergic receptor antagonists” (Roche Palo Alto LLC, priority 2003, dated 2007).

Each structure is given as a SMILES string. Where a name gives a salt, the structure may show the parent alone.

As a reminder, the melting point is the temperature, or range, at which the solid turns liquid. `COc1cc2[nH]c(N(C)Cc3cccc(N4CCN(C)C4=O)c3)nc(=O)c2c(C)c1OC` [Example 262, 6,7-Dimethoxy-5-methyl-2-{methyl-[3-(3-methyl-2-oxo-imidazolidin-1-yl)-benzyl]-amino}-1H-quinazolin-4-one] gave a melting point of 230 to 230.5 °C.
As to `COCCN(C)Cc1cccc(CN(C)c2nc(=O)c3c(OC)c(OC)c(OC)cc3[nH]2)c1` (as salt: hydrochloride) [Example 117, 5,6,7-Trimethoxy-2-[(3-{[(2-methoxy-ethyl)-methyl-amino]-methyl}-benzyl)-methyl-amino]-1H-quinazolin-4-one], the melting point is 162.9 to 164.5 °C.
To `COCCOC(=O)N(C)Cc1cccc(CN(C)c2nc(=O)c3c(C)c(OC)c(OC)cc3[nH]2)c1` [Example 294, (3-{[(6,7-Dimethoxy-5-methyl-4-oxo-1,4-dihydro-quinazolin-2-yl)-methyl-amino]-methyl}-benzyl)-methyl-carbamic acid 2-methoxy-ethyl ester] belongs 145.8 to 146.9 °C; to `COCCNc1cccc(CN(C)c2nc(=O)c3c(OC)c(OC)c(OC)cc3[nH]2)c1` [Example G-19, 5,6,7-Trimethoxy-2-{[3-(2-methoxy-ethylamino)-benzyl]-methyl-amino}-1H-quinazolin-4-one], 178.9 to 179.9 °C.
To `COc1cc2[nH]c(N(C)Cc3cccc(CN(C)S(C)(=O)=O)c3)nc(=O)c2c(C)c1OC` [Example 17, N-(3-{[(6,7-Dimethoxy-5-methyl-4-oxo-1,4-dihydro-quinazolin-2-yl)-methyl-amino]-methyl}-benzyl)-N-methyl-methanesulfonamide] belongs 223.9 to 225.9 °C; to `COc1cc2[nH]c(N(C)Cc3ccc(CN4CCC(O)C4)cc3)nc(=O)c2c(C)c1OC` (stereo not drawn), 166 to 169 °C; to `COc1cc2[nH]c(N(C)Cc3cccc(N=C4NCCN4)c3)nc(=O)c2c(C)c1OC` [Example G-38, 2-{[3-(Imidazolidin-2-ylideneamino)-benzyl]-methyl-amino}-6,7-dimethoxy-5-methyl-1H-quinazolin-4-one], 141.3 to 144.7 °C.
To `COc1cc2[nH]c(N(C)Cc3cccc(N(C)S(=O)(=O)N(C)C)c3)nc(=O)c2c(OC)c1OC` [Example 172, N,N,N′-Trimethyl-N′-(3-{[methyl-(5,6,7-trimethoxy-4-oxo-1,4-dihydro-quinazolin-2-yl)-amino]-methyl}-phenyl)-sulfamide] belongs 170.3 to 172.3 °C; to `COc1cc2[nH]c(N(C)Cc3cccc(OCC(=O)O)c3)nc(=O)c2c(C)c1OC` [Example 157, (3-{[(6,7-Dimethoxy-5-methyl-4-oxo-1,4-dihydro-quinazolin-2-yl)-methyl-amino]-methyl}-phenoxy)-acetic acid], more than 300 °C; to `COc1cc2[nH]c(N(C)Cc3cccc(OCCN(C)C)c3)nc(=O)c2c(C)c1OC` [Example 164, 2-{[3-(2-Dimethylamino-ethoxy)-benzyl]-methyl-amino}-6,7-dimethoxy-5-methyl-1H-quinazolin-4-one], 137.9 to 141.9 °C.
With `COCC/C(=N\c1cccc(CN(C)c2nc(=O)c3c(OC)c(OC)c(OC)cc3[nH]2)c1)N(C)C.Cl`, the melting point came out at 145 °C.
`COCCCOc1cccc(CN(C)c2nc(=O)c3c(C)c(OC)c(OC)cc3[nH]2)c1` [Example 162, 6,7-Dimethoxy-2-{[3-(3-methoxy-propoxy)-benzyl]-methyl-amino}-5-methyl-1H-quinazolin-4-one] returned a melting point of 150.1 to 152 °C.
Then `COc1cc2[nH]c(N(C)Cc3cccc(N4C(=O)CCC4=O)c3)nc(=O)c2c(OC)c1OC` [Example 260, 1-(3-{[Methyl-(5,6,7-trimethoxy-4-oxo-1,4-dihydro-quinazolin-2-yl)-amino]-methyl}-phenyl)-pyrrolidine-2,5-dione], with 125.5 to 128.5 °C; and `COc1cc2[nH]c(N(C)Cc3cccc(N(CCO)CCO)c3)nc(=O)c2c(OC)c1OC` [Example 190, 2-({3-[Bis(2-hydroxy-ethyl)-amino]-bewnzyl}-methyl-amino)-5,6,7-trimethoxy-1H-quinazolin-4-one], with 138.1 to 141 °C.
`COc1cc2nc(N(C)Cc3cccc(OC[S+](C)[O-])c3)[nH]c(=O)c2c(C)c1OC` (stereo not drawn) [Example F-2, 2-[(3-Methanesulfinylmethoxy-benzyl)-methyl-amino]-6,7-dimethoxy-5-methyl-1H-quinazolin-4-one] registered a melting point of 191 to 193.5 °C.
To `COc1cc2[nH]c(N(C)Cc3cccc(-n4cnc(C)c4)c3)nc(=O)c2c(C)c1OC` [Example 230, 6,7-Dimethoxyt-5-methyl-2-{methyl-[3-(4-methyl-imidazol-1-yl)-benzyl]-amino}-1H-quinazolin-4-one] belongs 245 to 249.5 °C.
Then `COc1cc2[nH]c(N(C)Cc3cccc(N=C4N(C)CCN4C)c3)nc(=O)c2c(C)c1OC` [Example 50, 2-{[3-(1,3-Dimethyl-imidazolidin-2-ylidenmeamino)-benzyl]-methyl-amino}-6,7-dimethoxy-5-methyl-1H-quinazoline-4-one], with 200.2 to 204.4 °C; and `COc1cc2c(=O)nc(N(C)Cc3cccc(/N=C(\C)N(C)C)c3)[nH]c2cc1Cl` [Example 74, N′-(3-{[(7-Chloro-6-methoxy-4-oxo-1,4-dihydro-quinazolin-2-yl)-methyl-amino]-methyl}-phenyl)-N,N-dimethyl-acetamide], with 185.4 to 191.9 °C; and `COc1cc2[nH]c(N(C)Cc3cccc(/N=C(\C4CCC4)N(C)C)c3)nc(=O)c2c(OC)c1OC` [Example 203, N,N-Dimethyl-N′-(3-{[methyl-(5,6,7-trimethoxy-4-oxo-11,4-dihydro-quinazolin-2-yl)-amino]-methyl}-phenyl)-cyclobutanecarboxamidine], with 164.2 to 165.7 °C.
To `COc1cc2[nH]c(N(C)Cc3cccc(CNC4CC4)c3)nc(=O)c2c(C)c1OC` [Example 66, 2-[(3-Cyclopropylaminomethyl-benzyl)-methyl-amino]-6,7-dimethoxy-5-methyl-1H-quinazolin-4-one] belongs 144.5 to 147.6 °C.
Compound `CCN(CCOC)Cc1ccc(CN(C)c2nc(=O)c3c(OC)c(OC)c(OC)cc3[nH]2)cc1` [Example 32, 2-[(4-{[Ethyl(2-methoxy-ethyl)-amino]-methyl}-benzyl)-methyl-amino]-5,6,7-trimethoxy-1H-quinazolin-4-one] returned a melting point of 120 to 122.4 °C.
For the compound `COc1cc2nc(N(C)Cc3cccc(OCCO)c3)[nH]c(=O)c2c(OC)c1OC` [Example F-1, 2-{[3-(2-Hydroxy-ethoxy)-benzyl]-methyl-amino}-5,6,7-trimethoxy-1H-quinazolin-4-one], the melting point was in the range of 146 to 147.5 °C.
`COc1ccc(CN(C)c2nc(=O)c3c(OC)c(OC)c(OC)cc3[nH]2)cc1OCC(CO)CO` (as salt: HCl) [Example 3, 2-{[3-(3-Hydroxy-2-hydroxymethyl-propoxy)-4-methoxy-benzyl]-methyl-amino}-5,6,7-trimethoxy-1H-quinazolin-4-one]: the melting point fell in the range of 139.7 to 146.6 °C.
Then `COc1cc2[nH]c(N(C)Cc3cccc(/N=C(\C)N(C)C)c3)nc(=O)c2c(F)c1OC` [Example 221, N′-(3-{[(5-Fluoro-6,7-dimethoxy-4-oxo-1,4-dihydro-quinazolin-2-yl)-methyl-amino]-methyl}-phenyl)-N,N-dimethyl-acetamidine], with 199.9 to 201.9 °C; and `COCCOC(=O)N(C)Cc1ccc(CN(C)c2nc(=O)c3c(C)c(OC)c(OC)cc3[nH]2)cc1` [Example 9, (4-{[(6,7-Dimethoxy-5-methyl-4-oxo-1,4-dihydro-quinazolin-2-yl)-methyl-amino]-methyl}-benzyl)-methyl-carbamic acid 2-methoxy-ethyl ester], with 159.4 to 160.4 °C.
To `COc1cc2[nH]c(N(C)Cc3ccc(C4=NCCN4C)cc3)nc(=O)c2c(C)c1OC` [Example 237, 6,7-Dimethoxy-5-methyl-2-{methyl[4-(1-methyl-,5-dihydro-1H-imidazol-2-yl)-benzyl]-amino}-1H-quinazolin-4-oine] belongs 179 to 181 °C; to `COc1cc2[nH]c(N(C)Cc3cccc(NCc4ncc[nH]4)c3)nc(=O)c2c(OC)c1OC` [Example 220, 2-({3-[(1H-Imidazol-2-ylmethyl)-amino]-benzyl}-methylamino)-5,6,7-trimethoxy-1H-quinazolin-4-one], 125 to 131 °C; to `COc1cc2[nH]c(N(C)Cc3cccc(-n4ccc(C)n4)c3)nc(=O)c2c(C)c1OC` [Example 233, 6,7-Dimethoxy-5-methyl-2-{methyl-[3-(3-methyl-pyrazol-1-yl)-benzyl]-amino}-1H-quinazolin-4-one], 220 to 223.5 °C.
`COc1cc2[nH]c(N(C)Cc3cccc(N4CCCS4(=O)=O)c3)nc(=O)c2c(C)c1OC` [Example 252, 2-{[3-(1,1-Dioxo-1λ6-isothiazolidin-2-yl)-benzyl]-methyl-amino}-6,7-dimethoxy-5-methyl-1H-quinazolin-4-one]: the melting point was in the range of 226 to 228.5 °C.
`COc1cc2[nH]c(N(C)Cc3cccc(C(C)N4CCC4)n3)nc(=O)c2c(OC)c1OC` (stereo not drawn) [Example 278, 2-{[6-(1-Aztidin-1-yl-ethyl)-pyridin-2-ylmethyl]-methyl-amino}-5,6,7-trimethoxy-1H-quinazolin-4-one]: the melting point was 70.8 to 78.8 °C.
Then `COc1cc2[nH]c(N(Cc3ccccc3)C(C)C)nc(=O)c2cc1OC` [Example A-7, 2-(Benzyl-isopropyl-amino)-6,7-dimethoxy-1H-quinazolin-4-one], with 168 to 170.5 °C; and `COc1cc2[nH]c(N(C)Cc3cccc(N4C[C@@H](O)CC4=O)c3)nc(=O)c2c(C)c1OC` [Example 27, 2-{[3-((S)-4-Hydroxy-2-oxo-pyrrolidin-1-yl)-benzyl]-methyl-amino}-6,7-dimethoxy-5-methyl-1H-quinazolin-4-one], with 230.8 to 232.5 °C.
`COc1cc2[nH]c(N(C)Cc3cccc(C4=NCCN4CCO)c3)nc(=O)c2c(C)c1OC` [Example 244, 2-({3-[1-(2-Hydroxy-ethyl)-4,5-dihydro-1H-imidazol-2-yl]-benzyl}-methyl-amino)-6,7-dimethoxy-5-methyl-1H-quinazolin-4-one]: the melting point is 253 to 254.9 °C.
